Assay results published in PubChem BioAssay AID1963846 (Molecular Pharmacology Branch, DTP, NCI, 2024).

System: 454973-116-R2-J3-PDC complex spheroid viability
Experiment: Anticancer human tumor 454973-116-R2-J3-PDC patient-derived pancreatic carcinoma cell line growth inhibition [POLQ]
Conditions: for IC50: curve of first compound; for viability, T/C: stronger effect = lower value
Summary of the method: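 Growth inhibition in 3D: complex spheroids (tumor PDC, HUVEC, MSC) treated with POLQ inhibitor combinations; where Cmax unknown, highest tested concentration 10 microM, except SN-38 at 1 microM.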

[1] = second compound 0.0316 µM, first compound 0.0316 µM
[2] = second compound 0.0316 µM, first compound 0.1 µM
[3] = second compound 0.0316 µM, first compound 0.316 µM
[4] = second compound 0.0316 µM, first compound 1 µM
[5] = second compound 0.1 µM, first compound 0.0316 µM
[6] = second compound 0.1 µM, first compound 0.1 µM
[7] = second compound 0.1 µM, first compound 0.316 µM
[8] = second compound 0.1 µM, first compound 1 µM
[9] = second compound 0.316 µM, first compound 0.0316 µM
[10] = second compound 0.316 µM, first compound 0.1 µM
[11] = second compound 0.316 µM, first compound 0.316 µM
[12] = second compound 0.316 µM, first compound 1 µM
[13] = second compound 1 µM, first compound 0.0316 µM
[14] = second compound 1 µM, first compound 0.1 µM
[15] = second compound 1 µM, first compound 0.316 µM
[16] = second compound 1 µM, first compound 1 µM
[17] = second compound 3.16 µM, first compound 0.0316 µM
[18] = second compound 3.16 µM, first compound 0.1 µM
[19] = second compound 3.16 µM, first compound 0.316 µM
[20] = second compound 3.16 µM, first compound 1 µM
[21] = second compound 10 µM, first compound 0.0316 µM
[22] = second compound 10 µM, first compound 0.1 µM
[23] = second compound 10 µM, first compound 0.316 µM
[24] = second compound 10 µM, first compound 1 µM
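Note: spheroids exposed to drugs for seven days before measurement.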
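Throughout, for viability, T/C: percent viability relative to DMSO vehicle control wells taken as 100%.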

Question: How did the IC50 (second compound 0.0316 µM) turn out when CCCS(=O)(=O)Nc1ccc(F)c(C(=O)c2c[nH]c3ncc(-c4ccc(Cl)cc4)cc23)c1F + Cc1cccc(N(C)C(=O)C2C(O)CCN2c2nc(C)cc(C(F)(F)F)c2C#N)c1 was run?
Answer: 8.18 µM

Question: And the IC50 (second compound 0.1 µM)?
Answer: 8.77 µM

Question: What about the IC50 (second compound 0.316 µM) of the same molecule?
Answer: 8.92 µM

Question: And the IC50 (second compound 1 µM)?
Answer: 8.4 µM

Question: What about the IC50 (second compound 3.16 µM) of the same molecule?
Answer: 8.13 µM

Question: And the IC50 (second compound 10 µM)?
Answer: 6.95 µM

Question: What about the viability, T/C [1] of the same molecule?
Answer: 108%

Question: And the viability, T/C [2]?
Answer: 116%

Question: What about the viability, T/C [3] of the same molecule?
Answer: 112%

Question: And the viability, T/C [4]?
Answer: 118%

Question: What about the viability, T/C (second compound 0.0316 µM, first compound 3.16 µM) of the same molecule?
Answer: 113%

Question: What about the viability, T/C (second compound 0.0316 µM, first compound 10 µM) of the same molecule?
Answer: 36.7%

Question: What about the viability, T/C [5] of the same molecule?
Answer: 105%

Question: What about the viability, T/C [6] of the same molecule?
Answer: 111%

Question: What about the viability, T/C [7] of the same molecule?
Answer: 115%

Question: And the viability, T/C [8]?
Answer: 122%

Question: And the viability, T/C (second compound 0.1 µM, first compound 3.16 µM)?
Answer: 111%

Question: What about the viability, T/C (second compound 0.1 µM, first compound 10 µM) of the same molecule?
Answer: 42.1%

Question: What about the viability, T/C [9] of the same molecule?
Answer: 108%

Question: What about the viability, T/C [10] of the same molecule?
Answer: 116%

Question: What about the viability, T/C [11] of the same molecule?
Answer: 118%

Question: What about the viability, T/C [12] of the same molecule?
Answer: 113%

Question: And the viability, T/C (second compound 0.316 µM, first compound 3.16 µM)?
Answer: 123%

Question: And the viability, T/C (second compound 0.316 µM, first compound 10 µM)?
Answer: 42.7%

Question: And the viability, T/C [13]?
Answer: 136%

Question: And the viability, T/C [14]?
Answer: 110%

Question: What about the viability, T/C [15] of the same molecule?
Answer: 114%

Question: What about the viability, T/C [16] of the same molecule?
Answer: 111%

Question: And the viability, T/C (second compound 1 µM, first compound 3.16 µM)?
Answer: 126%

Question: What about the viability, T/C (second compound 1 µM, first compound 10 µM) of the same molecule?
Answer: 37.3%

Question: And the viability, T/C [17]?
Answer: 117%

Question: What about the viability, T/C [18] of the same molecule?
Answer: 110%

Question: And the viability, T/C [19]?
Answer: 104%

Question: And the viability, T/C [20]?
Answer: 105%

Question: What about the viability, T/C (second compound 3.16 µM, first compound 3.16 µM) of the same molecule?
Answer: 115%

Question: What about the viability, T/C (second compound 3.16 µM, first compound 10 µM) of the same molecule?
Answer: 36.8%

Question: What about the viability, T/C [21] of the same molecule?
Answer: 120%

Question: What about the viability, T/C [22] of the same molecule?
Answer: 112%

Question: What about the viability, T/C [23] of the same molecule?
Answer: 110%

Question: And the viability, T/C [24]?
Answer: 111%

Question: And the viability, T/C (second compound 10 µM, first compound 3.16 µM)?
Answer: 118%

Question: And the viability, T/C (second compound 10 µM, first compound 10 µM)?
Answer: 20.3%

Question: Which IC50 (second compound 0.0316 µM) does the source give for CCc1c2c(nc3ccc(O)cc13)-c1cc3c(c(=O)n1C2)COC(=O)[C@]3(O)CC + Cc1cccc(N(C)C(=O)C2C(O)CCN2c2nc(C)cc(C(F)(F)F)c2C#N)c1 here?
Answer: < 0.00316 µM

Question: And the IC50 (second compound 0.1 µM)?
Answer: < 0.00316 µM

Question: And the IC50 (second compound 0.316 µM)?
Answer: < 0.00316 µM

Question: What about the IC50 (second compound 1 µM) of the same molecule?
Answer: < 0.00316 µM

Question: What about the IC50 (second compound 3.16 µM) of the same molecule?
Answer: < 0.00316 µM

Question: And the IC50 (second compound 10 µM)?
Answer: < 0.00316 µM

Question: And the viability, T/C (second compound 0.0316 µM, first compound 0.00316 µM)?
Answer: 32.6%

Question: And the viability, T/C (second compound 0.0316 µM, first compound 0.01 µM)?
Answer: 17.2%

Question: What about the viability, T/C [1] of the same molecule?
Answer: 13.2%

Question: And the viability, T/C [2]?
Answer: 6.84%

Question: What about the viability, T/C [3] of the same molecule?
Answer: 2.58%

Question: What about the viability, T/C [4] of the same molecule?
Answer: 1.69%

Question: What about the viability, T/C (second compound 0.1 µM, first compound 0.00316 µM) of the same molecule?
Answer: 31.1%

Question: And the viability, T/C (second compound 0.1 µM, first compound 0.01 µM)?
Answer: 19.1%

Question: And the viability, T/C [5]?
Answer: 13.6%

Question: What about the viability, T/C [6] of the same molecule?
Answer: 5.52%

Question: What about the viability, T/C [7] of the same molecule?
Answer: 2.13%

Question: What about the viability, T/C [8] of the same molecule?
Answer: 1.7%

Question: What about the viability, T/C (second compound 0.316 µM, first compound 0.00316 µM) of the same molecule?
Answer: 28.8%

Question: What about the viability, T/C (second compound 0.316 µM, first compound 0.01 µM) of the same molecule?
Answer: 17.2%

Question: What about the viability, T/C [9] of the same molecule?
Answer: 15%

Question: And the viability, T/C [10]?
Answer: 5.17%

Question: What about the viability, T/C [11] of the same molecule?
Answer: 1.9%

Question: And the viability, T/C [12]?
Answer: 1.61%

Question: And the viability, T/C (second compound 1 µM, first compound 0.00316 µM)?
Answer: 35.7%

Question: And the viability, T/C (second compound 1 µM, first compound 0.01 µM)?
Answer: 18.7%

Question: And the viability, T/C [13]?
Answer: 11.5%

Question: What about the viability, T/C [14] of the same molecule?
Answer: 5.4%

Question: What about the viability, T/C [15] of the same molecule?
Answer: 2.24%

Question: And the viability, T/C [16]?
Answer: 1.72%

Question: What about the viability, T/C (second compound 3.16 µM, first compound 0.00316 µM) of the same molecule?
Answer: 33.6%

Question: What about the viability, T/C (second compound 3.16 µM, first compound 0.01 µM) of the same molecule?
Answer: 21.9%

Question: And the viability, T/C [17]?
Answer: 13.1%

Question: What about the viability, T/C [18] of the same molecule?
Answer: 5.13%

Question: What about the viability, T/C [19] of the same molecule?
Answer: 2.23%

Question: And the viability, T/C [20]?
Answer: 1.68%

Question: And the viability, T/C (second compound 10 µM, first compound 0.00316 µM)?
Answer: 26.3%

Question: What about the viability, T/C (second compound 10 µM, first compound 0.01 µM) of the same molecule?
Answer: 21.5%

Question: And the viability, T/C [21]?
Answer: 12.8%

Question: And the viability, T/C [22]?
Answer: 4.56%

Question: And the viability, T/C [23]?
Answer: 1.72%

Question: What about the viability, T/C [24] of the same molecule?
Answer: 4.16%
